ChEMBL document CHEMBL4673351, “3α-Angeloyloxy-ent-kaur-16-en-19-oic Acid Isolated from Wedelia trilobata L. Alleviates Xylene-Induced Mouse Ear Edema and Inhibits NF-κB and MAPK Pathway in LPS-Stimulated Macrophages” (J Nat Prod, 2020)
Activity calls are given as the source filed them. No cut-off for these calls is given here.

Key:
[1] = (§1) Inhibition of NF-kappaB activation in mouse RaW264.7 cells assessed as reduction in LPS-induced NO production after 24 hrs by Griess reagent based assay; type: cell-based; details: RAW264.7, 24 h
Mus musculus [2] = test: Antiinflammatory activity in Kunming mouse assessed as reduction in xylene-induced vasodilation in ear at 5 mg/kg administered topically pretreated for 30 mins followed by xylene-treatment and measured after 30 mins by H and E staining based microscopic method; type: functional, organism-based; details: time 60.0 min
Mus musculus [3] = test: Antiinflammatory activity in Kunming mouse assessed as reduction in xylene-induced cell infiltration in ear at 5 mg/kg administered topically pretreated for 30 mins followed by xylene-treatment and measured after 30 mins by H and E staining based microscopic method; type: functional, organism-based; details: time 60.0 min
Mus musculus [4] = test: Antiinflammatory activity in Kunming mouse assessed as reduction in xylene-induced ear edema at 5 mg/kg administered topically pretreated for 30 mins followed by xylene-treatment and measured after 30 mins relative to control; type: functional; design: scale not given: the % may be the effect or the level left; details: time 60 min, 1 h
RAW264.7 [5] = test: as §1; type: cell-based
Mus musculus [6] = test: Antiinflammatory activity in Kunming mouse assessed as reduction in xylene-induced cell infiltration in ear at 50 mg/kg administered topically pretreated for 30 mins followed by xylene-treatment and measured after 30 mins by H and E staining based microscopic method; type: functional, organism-based; details: time 60.0 min
RAW264.7 [7] = test: Inhibition of LPS-induced iNOS protein expression in mouse RAW264.7 cells up to 30 uM after 24 hrs by Western blot analysis; type: functional, cell-based; details: dose microM <=30, time 24.0 hrs
Mus musculus [8] = test: Antiinflammatory activity in Kunming mouse assessed as reduction in xylene-induced ear edema at 50 mg/kg administered topically pretreated for 30 mins followed by xylene-treatment and measured after 30 mins relative to control; type: functional; design: scale not given: the % may be the effect or the level left; details: time 60 min, 1 h
RAW264.7 [9] = test: Inhibition of NF-kappaB in mouse RaW264.7 cells assessed as reduction in LPS-induced IkappaBalpha degradation up to 30 uM after 24 hrs by Western blot analysis; type: cell-based; details: dose microM <=30, time 24.0 hrs
RAW264.7 [10] = test: Inhibition of NF-kappaB phosphorylation in LPS-induced mouse RaW264.7 cells up to 30 uM after 24 hrs by Western blot analysis; details: dose microM <=30, time 24.0 hrs
RAW264.7 [11] = test: Inhibition of IKKalpha/beta phosphorylation in LPS-induced mouse RaW264.7 cells up to 30 uM after 24 hrs by Western blot analysis; details: dose microM <=30, time 24.0 hrs
RAW264.7 [12] = test: Cytotoxicity against mouse RAW264.7 cells assessed as reduction in cell viability up to 60 uM after 24 hrs in presence of LPS by MTT assay; type: cell-based; details: raw264.7, 24 h
RAW264.7 [13] = test: Inhibition of NF-kappaB activation in mouse RaW264.7 cells assessed as reduction in LPS-induced TNFalpha mRNA expression after 24 hrs by qRT-PCR analysis; type: cell-based
RAW264.7 [14] = test: Inhibition of JNK phosphorylation in LPS-induced mouse RaW264.7 cells up to 30 uM after 24 hrs by Western blot analysis; details: dose microM <=30, time 24.0 hrs
RAW264.7 [15] = test: Inhibition of LPS-induced mitochondrial membrane potential loss in mouse RAW264.7 cells at 20 uM after 24 hrs by JC-1 staining based fluorescence microscopic method; type: functional, cell-based
Mus musculus [16] = test: Antiinflammatory activity in Kunming mouse assessed as reduction in xylene-induced ear edema at 25 mg/kg administered topically pretreated for 30 mins followed by xylene-treatment and measured after 30 mins relative to control; type: functional; design: scale not given: the % may be the effect or the level left; details: time 60 min, 1 h
RAW264.7 [17] = test: Inhibition of NF-kappaB p65 nuclear translocation in LPS-induced mouse RaW264.7 cells at 20 uM after 24 hrs by DAPI staining based Immunofluorescence assay
RAW264.7 [18] = test: Inhibition of NF-kappaB activation in mouse RaW264.7 cells assessed as reduction in LPS-induced IL-6 protein expression up to 30 uM after 24 hrs by Western blot analysis; type: cell-based; details: dose microM <=30, time 24.0 hrs
RAW264.7 [19] = test: (§2) Inhibition of NF-kappaB activation in mouse RaW264.7 cells assessed as reduction in LPS-induced PGE2 production after 24 hrs by ELISA; type: cell-based
[20] = as §2; type: cell-based; details: RAW264.7, 24 h
RAW264.7 [21] = test: Inhibition of NF-kappaB activation in mouse RaW264.7 cells assessed as reduction in LPS-induced IL-6 mRNA expression after 24 hrs by qRT-PCR analysis; type: cell-based
RAW264.7 [22] = test: Inhibition of ERK phosphorylation in LPS-induced mouse RaW264.7 cells up to 30 uM after 24 hrs by Western blot analysis; details: dose microM <=30, time 24.0 hrs
Mus musculus [23] = test: Antiinflammatory activity in Kunming mouse assessed as reduction in xylene-induced vasodilation in ear at 50 mg/kg administered topically pretreated for 30 mins followed by xylene-treatment and measured after 30 mins by H and E staining based microscopic method; type: functional, organism-based; details: time 60.0 min
RAW264.7 [24] = test: Inhibition of LPS-induced COX-2 mRNA expression in mouse RAW264.7 cells after 24 hrs by qRT-PCR analysis; type: functional, cell-based
RAW264.7 [25] = test: Inhibition of LPS-induced ROS generation in mouse RAW264.7 cells up to 40 uM after 24 hrs by DCFH-DA staining based fluorescence assay; type: functional, cell-based; details: dose microM <=40, time 24.0 hrs
RAW264.7 [26] = test: Inhibition of NF-kappaB activation in mouse RaW264.7 cells assessed as reduction in LPS-induced TNF-alpha protein expression up to 30 uM after 24 hrs by Western blot analysis; type: cell-based; details: dose microM <=30, time 24.0 hrs
RAW264.7 [27] = test: Cytotoxicity against mouse RAW264.7 cells assessed as reduction in cell viability up to 80 uM after 24 hrs by MTT assay; type: cell-based; details: raw264.7, 24 h
RAW264.7 [28] = test: Inhibition of LPS-induced COX-2 protein expression in mouse RAW264.7 cells up to 30 uM after 24 hrs by Western blot analysis; type: functional, cell-based; details: dose microM <=30, time 24.0 hrs
RAW264.7 [29] = test: Inhibition of LPS-induced iNOS mRNA expression in mouse RAW264.7 cells after 24 hrs by qRT-PCR analysis; type: functional, cell-based
[30] = molecular target: MAP kinase p38 (Mus musculus) (UniProt P47811+O08911+Q9WUI1+Q9Z1B7); test: Inhibition of p38 phosphorylation in LPS-induced mouse RaW264.7 cells up to 30 uM after 24 hrs by Western blot analysis; details: dose microM <=30, time 24.0 hrs

Molecule C=C1C[C@@]23CC[C@H]4[C@@](C)(CCC[C@@]4(C)C(=O)O)[C@@H]2CC[C@@H]1C3 [KAURENOIC ACID] has an IC50 [1] of 50 µM.
With C[C@]12CCC(=O)C=C1CC[C@@H]1[C@@H]2[C@@H](O)C[C@@]2(C)[C@H]1CC[C@]2(O)C(=O)CO [HYDROCORTISONE] the Activity (Mus musculus [2]) was “Active”, the Activity (Mus musculus [3]) was “Active” and the Activity (Mus musculus [4]) was 55.53%.
For C=C1C[C@@]23CC[C@H]4[C@@](C)(CC[C@@H](OC(=O)/C(C)=C\C)[C@@]4(C)C(=O)O)[C@@H]2CC[C@@H]1C3, the inhibition (RAW264.7 [5]) was “Dose-dependent effect”, the IC50 [1] was 20.3 µM and the Activity (Mus musculus [6]) was “Active”. For the same molecule, the inhibition (RAW264.7 [7]) was “Active”, the Activity (Mus musculus [8]) was 51.57% and the inhibition (RAW264.7 [9]) was “Active”. For the same molecule, the inhibition (RAW264.7 [10]) was “Active”, the inhibition (RAW264.7 [11]) was “Active” and the Activity (RAW264.7 [12]) was “Non-Toxic”. The inhibition (RAW264.7 [13]) was “Dose-dependent effect”, the inhibition (RAW264.7 [14]) was “Active” and the inhibition (RAW264.7 [15]) was “Active”. The Activity (Mus musculus [16]) was 42.44%, the inhibition (RAW264.7 [17]) was “Active” and the inhibition (RAW264.7 [18]) was “Active”. For the same molecule, the inhibition (RAW264.7 [19]) was “Dose-dependent effect”, the IC50 [20] was 20.3 µM and the inhibition (RAW264.7 [21]) was “Dose-dependent effect”. For the same molecule, the inhibition (RAW264.7 [22]) was “Active”, the Activity (Mus musculus [23]) was “Active” and the inhibition (RAW264.7 [24]) was “Dose-dependent effect”. The inhibition (RAW264.7 [25]) was “Active”, the inhibition (RAW264.7 [26]) was “Active” and the Activity (RAW264.7 [27]) was “Non-Toxic”. For the same molecule, the inhibition (RAW264.7 [28]) was “Active”, the inhibition (RAW264.7 [29]) was “Dose-dependent effect” and the inhibition [30] was “Active”.
